Data from ChEMBL document CHEMBL1157329, “Granulatamides A and B, cytotoxic tryptamine derivatives from the soft coral Eunicella granulata” (2006).

Columns and labels:
Type in all cases: functional
HT-29 = assay: Cytotoxicity against human HT29 cells by SRB assay
LNCaP = assay: Cytotoxicity against human LNcaP cells by SRB assay
SK-BR-3 = assay: Cytotoxicity against human SK-BR3 cells by SRB assay
SK-MEL-28 = assay: Cytotoxicity against human SK-MEL-28 cells by SRB assay
SK-OV-3 = assay: Cytotoxicity against human SK-OV-3 cells by SRB assay
K562 = assay: Cytotoxicity against human K562 cells by SRB assay
[1] = Cytotoxicity against human ecteinascidin-743-resistant IGROV-ET cells by SRB assay
LoVo [2] = assay: Cytotoxicity against human doxorubicin-resistant LOVO cells by SRB assay
[3] = Cytotoxicity against human IGROV cells by SRB assay
LoVo [4] = assay: Cytotoxicity against human LOVO cells by SRB assay
PANC-1 = assay: Cytotoxicity against human PANC1 cells by SRB assay
A549 = assay: Cytotoxicity against human A549 cells by SRB assay
[5] = Cytotoxicity against human HMEC1 cells by SRB assay; conditions: HMEC-1
DU-145 = assay: Cytotoxicity against human DU145 cells by SRB assay
HeLa [6] = assay: Cytotoxicity against human aplidin-resistant HeLa cells by SRB assay
HeLa [7] = assay: Cytotoxicity against human HeLa cells by SRB assay

| Compound | GI50 (HT-29) [µM] | GI50 (LNCaP) [µM] | GI50 (SK-BR-3) [µM] | GI50 (SK-MEL-28) [µM] | GI50 (SK-OV-3) [µM] | GI50 (K562) [µM] | GI50 [1] [µM] | GI50 (LoVo [2]) [µM] | GI50 [3] [µM] | GI50 (LoVo [4]) [µM] | GI50 (PANC-1) [µM] | GI50 (A549) [µM] | GI50 [5] [µM] | GI50 (DU-145) [µM] | GI50 (HeLa [6]) [µM] | GI50 (HeLa [7]) [µM] |
| --- | --- | --- | --- | --- | --- | --- | --- | --- | --- | --- | --- | --- | --- | --- | --- | --- |
| CCCCCCCCC/C(C)=C\C(=O)NCCc1c[nH]c2ccccc12 [GRANULATAMIDE A] | 2.2 | 4.7 | 2.7 | 3.9 | 11.6 | 6.8 | 12.7 | 12 | 6.7 | 10.5 | 10.4 | 6.7 | 6.2 | 1.7 | – | – |
| CCCCCCC/C(C)=C/C(C)=C\C(=O)NCCc1c[nH]c2ccccc12 [GRANULATAMIDE B] | 13.8 | 3.5 | 6 | 10.6 | – | 4.3 | 6.7 | 10 | 8.2 | 8.6 | 6.5 | 8.9 | – | 7.7 | 9 | 9.7 |
